Assay results: patent US11535597B2, “Photoreactive ligands and uses thereof” (The Scripps Research Institute, priority 2017, dated 2022)

Biological target: T1, ZADH2 (Homo sapiens, UniProt Q8N4Q0)
T1 construct: endogenous in cells; host or cells: HEK293T
T1 sequence (Q8N4Q0 1-377): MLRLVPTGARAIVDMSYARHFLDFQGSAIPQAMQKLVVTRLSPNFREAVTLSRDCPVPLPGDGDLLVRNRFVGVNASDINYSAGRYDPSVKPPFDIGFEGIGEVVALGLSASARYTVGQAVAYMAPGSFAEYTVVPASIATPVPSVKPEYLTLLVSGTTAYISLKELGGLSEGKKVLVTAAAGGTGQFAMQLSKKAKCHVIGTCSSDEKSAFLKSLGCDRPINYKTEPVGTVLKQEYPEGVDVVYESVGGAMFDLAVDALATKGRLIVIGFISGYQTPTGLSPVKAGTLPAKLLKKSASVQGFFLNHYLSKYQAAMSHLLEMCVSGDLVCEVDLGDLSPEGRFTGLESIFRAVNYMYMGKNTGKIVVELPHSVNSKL
Assay: MS-based (SILAC) competition of FFF probe 8 labeling of ZADH2 in HEK293T cells
Type: binding
Settings: competition with FFF probe 8 (20 μM)
Description: For gel-based experiments, cells were grown in 6-well plates to ˜90% confluence at the time of treatment. Cells were carefully washed with Dulbecco's phosphate buffered saline (DPBS) and replenished with fresh serum-free media containing indicated FFF probe, and, if applicable, competitors or DMSO vehicle (1 mL). Following incubation at 37° C. for 30 min, cells were directly exposed to 365 nm light for 10 min. For no UV experiments, cells were incubated at 4° C. for 10 min under ambient light. For MS-based experiments, cell labeling was performed in a similar manner as described above. Modifications to this protocol included using isotopically ‘light’ and ‘heavy’ SILAC cells that were grown to near complete confluence prior to treatment in 10 cm plates. In probe-versus-control probe and probe-versus-probe experiments, isotopically light cells were treated with indicated fragment probe, while the heavy cells were treated with control probe (1), or additional FFF probe to be compared, at indicated concentrations. […]
Cells pellets were lysed in cold DPBS (100-500 µL) using a Branson Sonifier probe sonicator (10 pulses, 30% duty cycle, output setting=4). […] Protein concentration was determined using the DC Protein Assay (Bio-Rad) and absorbance read using a Tecan, Infinite F500 plate reader following manufacturer's instructions. […]

For `COc1ccccc1N1CCN(C(=O)Cc2ccccc2)CC1` [Compound 22, 1-(4-(2-Methoxyphenyl)piperazin-1-yl)-2-phenylethan-1-one], the “cross-reactivity with ZADH2” value was “did not cross-react”.
